Test results reported in the supplement of paper PMC10307832.

Assays:
Experiment in all cases: relative viability (nuclei count vs DMSO), 5 days (fraction); higher = more cells survive
OSI-027 + Lapatinib = compound: COc1cccc2cc(-c3nc([C@H]4CC[C@H](C(=O)O)CC4)n4ncnc(N)c34)[nH]c12 [OSI-027] + CS(=O)(=O)CCNCc1ccc(-c2ccc3ncnc(Nc4ccc(OCc5cccc(F)c5)c(Cl)c4)c3c2)o1 [Lapatinib] (partner 2 µM)
Method in brief: (§1)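 Lung cancer cell lines were pin-tool dosed in 1536-well plates on the day after seeding, with either a lone drug or a fixed anchor-drug dose plus five library-drug doses (not always all listed) in √10 steps. Nuclei were counted on 4× images after 5 days. Relative viability is the ratio of treated-well to vehicle-well nuclei counts, with each value a median of duplicate plates.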

OSI-027 + Phenformin = compound: COc1cccc2cc(-c3nc([C@H]4CC[C@H](C(=O)O)CC4)n4ncnc(N)c34)[nH]c12 [OSI-027] + N=C(N)NC(=N)NCCc1ccccc1 [Phenformin] (partner 250 µM)
Method in brief: as §1

[1] = compound: CCCS(=O)(=O)Nc1ccc(F)c(C(=O)c2c[nH]c3ncc(-c4ccc(Cl)cc4)cc23)c1F [Vemurafenib] + CC(=O)c1c(C)c2cnc(Nc3ccc(N4CCNCC4)cn3)nc2n(C2CCCC2)c1=O [Palbociclib] (partner 0.5 µM)
Method in brief: as §1

Vemurafenib + Dasatinib = compound: CCCS(=O)(=O)Nc1ccc(F)c(C(=O)c2c[nH]c3ncc(-c4ccc(Cl)cc4)cc23)c1F [Vemurafenib] + Cc1nc(Nc2ncc(C(=O)Nc3c(C)cccc3Cl)s2)cc(N2CCN(CCO)CC2)n1 [Dasatinib] (partner 0.075 µM)
Method in brief: as §1

Row | Cell Line | relative viability (OSI-027 + Lapatinib; first compound 0.01 µM) | relative viability (OSI-027 + Lapatinib; first compound 0.03162 µM) | relative viability (OSI-027 + Lapatinib; first compound 0.1 µM) | relative viability (OSI-027 + Lapatinib; first compound 0.3162 µM) | relative viability (OSI-027 + Lapatinib; first compound 1 µM) | relative viability (OSI-027 + Phenformin; first compound 0.01 µM) | relative viability (OSI-027 + Phenformin; first compound 0.03162 µM) | relative viability (OSI-027 + Phenformin; first compound 0.1 µM) | relative viability (OSI-027 + Phenformin; first compound 0.3162 µM) | relative viability (OSI-027 + Phenformin; first compound 1 µM) | relative viability ([1]; first compound 0.03162 µM) | relative viability ([1]; first compound 0.3162 µM) | relative viability ([1]; first compound 1 µM) | relative viability (Vemurafenib + Dasatinib; first compound 0.03162 µM) | relative viability (Vemurafenib + Dasatinib; first compound 0.3162 µM) | relative viability (Vemurafenib + Dasatinib; first compound 1 µM) | relative viability ([1]; first compound 0.1 µM) | relative viability (Vemurafenib + Dasatinib; first compound 0.1 µM)
1 | A549 | 1.1 | 0.878 | 0.764 | 0.497 | 0.314 | 0.176 | 0.154 | 0.122 | 0.171 | 0.0806 |  |  |  |  |  |  |  | 
2 | H3255 | 0.22 | 0.269 | 0.234 | 0.183 | 0.234 | 0.308 | 0.359 | 0.31 | 0.349 | 0.407 | 0.318 | 0.301 | 0.307 | 0.36 | 0.446 | 0.371 |  | 
3 | NCI-H1993 | 0.786 | 0.808 | 0.773 | 0.785 | 0.693 | 0.529 | 0.472 | 0.492 | 0.546 | 0.547 | 0.63 | 0.703 | 0.54 | 0.298 | 0.694 | 0.621 |  | 
4 | EBC-1 | 0.187 | 0.217 | 0.223 | 0.199 | 0.203 |  |  |  |  |  |  |  |  |  |  |  |  | 
5 | HCC-44 | 1.05 | 0.975 | 0.93 | 0.85 | 0.444 | 0.16 | 0.229 | 0.127 | 0.158 | 0.12 | 0.957 | 0.957 | 0.926 |  |  |  | 0.887 | 
6 | NCI-H1563 | 0.846 | 1.05 | 0.745 | 0.757 | 0.775 | 0.674 | 0.647 | 0.618 | 0.681 | 0.589 |  |  |  | 0.526 | 0.465 | 0.419 |  | 0.432
